# Laboratory results as given in US12083134B2, “Anacardic acid for neural repair” (Vanderbilt University, priority 2018, dated 2024).
# Legend:
# [1] = system: cuprizone induced demyelination; experiment: Cuprizone induced model of demyelination, myelin staining of corpus callosum; type: in vivo, mice
# Protocol: Mice were administered cuprizone for nine weeks, and starting at week 7, mice were treated with 12.5 mg/kg AA daily for three additional weeks. Mice were sacrificed at the end of week 9. […] The data are expressed as the mean pixel intensity of LFB staining normalized to controls measured at two non-overlapping regions of the corpus callosum.
# FIG. 11 provides images showing the staining of myelin using LFB stain (top panel) and immunostaining with anti MBP antibodies (bottom panel) in coronal sections of the brain in a 9-week study of naïve (left), cuprizone treated (middle), and cuprizone+AA treated (12.5 mg/kg/day) mice where the cuprizone+AA treated mice were treated with AA in weeks 7-9 of the study. The Y axis represents the mean pixel intensity of staining normalized to controls for LFB and immunostaining for MBP.
# The cuprizone induced model of demyelination is a model for toxic demyelination. Torkildsen et al., Acta Neurol Scand Suppl. 188:72-6 (2008); Bai et al., Exp Neurol, 283(Pt A): 330-40 (2016). Cuprizone induces extensive demyelination in large white matter tracts of the CNS. Because the corpus callosum is the largest white matter tract in the brain, it is often used to study demyelination/remyelination in the cuprizone model. In the cuprizone model, animals are fed with cuprizone that causes cell death of oligodendrocytes. […] Deshmukh et al., Nature, 502(7471):327-32 (2014); Magalon et al., Ann Neurol, 71(2):213-26 (2012). Since the model is non-immune mediated, neuro-reparative therapies which promote remyelination can be tested without the interference of markers of inflammation. Lassmann and Bradl, Acta Neuropathol, 133(2):223-44 (2017).
# The efficacy of any potential drug is only apparent for a short period of time after cuprizone withdrawal and before the natural process of remyelination catches up. Following cuprizone withdrawal, there is complete remyelination after 6 weeks. Thus, a study was conducted where mice were administered cuprizone in their chow for nine weeks and either AA or a vehicle were administered with the cuprizone starting at 7 weeks. Previous studies have shown that chow mixed with 0.2% cuprizone causes wide spread demyelination and demyelination is seen in the corpus callosum after 6 to 8 weeks on cuprizone. At the beginning of week 7, mice received 12.5 mg/kg of AA dissolved in DMSO sc daily for an additional three weeks. Control mice received an equal volume of DMSO (vehicle). Equal numbers of mice (5/group) were sacrificed and the amount of myelin was determined by staining with luxol fast blue (“LFB”) (chemical stain for myelin) or by staining with anti MBP antibodies at the end of weeks 7, 8 and 9. […]
# [2] = system: OPCs; experiment: Maturation of OPCs to mature oligodendrocytes, MBP staining after 14 days culture with AA; type: cell-based, rat; details: AA 1 μM
# Protocol: FIG. 6 provides images showing the increased differentiation of OPCs to mature oligodendrocytes following culture with AA (Ana). OPCs were isolated from rat pups and were cultured with AA where 1 μM of AA was added to the culture every other day for 14 days. At the end of the experiment, the cells were stained and the amount of MBP was assessed using ImagJ software.
# The expression of MBP, a marker for myelin maturation in OPCs, was investigated in the presence and absence of AA (1 μM) following culture with AA for 14 days.
# [3] = system: myelin genes Mbp, Mog and Plp and transcription elements Sp1, Sox10 and Purα in OPCs; experiment: qPCR analysis of myelin gene expression in OPCs treated with AA; type: cell-based, rat; details: AA 2.5 μM, 3 hours
# Protocol: Mbp=myelin basic protein, Plp=proteolipoprotein, Mog=myelin oligodendrocyte glycoprotein.
# The effect of AA on the expression of myelin genes, MBP, and IL-33 was examined. […] Natarajan et al., PLOS One, 11(3):e0152163 (2016); Sriram et al., Neurology, Abstract presented at the American Academy of Neurology, 2016 (2016). The studies were done in OPCs obtained from rat pups. OPCs were treated with AA (2.5 μM) for 3 hours and message levels were quantified using qPCR analysis. OPCs treated with AA induced the major myelin genes Mbp, Mog and Plp.
compound,measurement,setting,value
"CCCCCCCCCCCCCCCc1cccc(O)c1C(=O)O [AA, anacardic acid]",number of oligodendrocytes vs vehicle treated mice,[1]; AA 12.5 mg/kg/day,no difference
same,increase in LFB staining of corpus callosum vs control mice,"[1]; end of week 9, three weeks of AA 12.5 mg/kg sc daily, P<0.02",10%
same,expression of myelin vs control mice,"[1]; end of weeks 7 and 8, one or two weeks of AA 12.5 mg/kg sc daily",no differences
same,increase in MBP staining (anti MBP antibodies) vs control mice,"[1]; week 9, AA 12.5 mg/kg/day weeks 7-9, P=0.02",17%
same,increase in the expression of MBP vs normal growth medium,[2],2.1 fold
same,"expression of major myelin genes Mbp, Mog and Plp (message levels, qPCR)",[3],induced
same,"expression of transcription elements Sp1, Sox10 and Purα that bind the Mbp promoter (qPCR)",[3],upregulation
